Consider three compounds from patent publication US20040023807A1, “3-Arylisothiazoles and their use as herbicides” (priority 2000, published 2004).

For orientation: melting point means the temperature, or range, at which the solid turns liquid.

The structures appear in SMILES notation.

Data set [1] concerns catchweed bedstraw (GALAP). In words: greenhouse herbicidal action, post-emergence treatment. The class given is in vivo. Conditions: application rates of 15.6 and 31.3 g of a.s./ha. From the text: (§1) The seeds of the test plants were sewn separately for each species. For the post-emergence treatment, the test plants were first grown to a height of from 3 to 15 cm, depending on the plant habit, and only then treated with the active compounds which had been suspended or emulsified in water. The test plants were for this purpose either sown directly and grown in the same containers, or they were first grown separately as seedlings and transplanted into the test containers a few days prior to treatment. The application rate for the post-emergence treatment was 31.3 and 15.6 g of a.s./ha. Depending on the species, the plants were kept at 10-25° C. or 20-35° C. The test period extended over 2 to 4 weeks. During this time, the plants were tended, and their response to the individual treatments was evaluated. The evaluation was carried out using a scale from 0 to 100. 100 means no emergence of the plants, or complete destruction of at least the above-ground parts, and 0 means no damage, or normal course of growth. The plants used in the greenhouse experiments were of the following species: [table]

The test system of a further data set is morning glory (IPOSS). The data set is described as above. Type of data set: in vivo. To be noted: application rates of 15.6 and 31.3 g of a.s./ha.
Text: as §1

The next data set deals with dayflower (COMBE). Described as above. The class given is in vivo. Conditions: application rates of 15.6 and 31.3 g of a.s./ha.
Text: as §1

The next data set deals with redroot pigweed (AMARE). The data set is described as above. Type of data set: in vivo. Conditions: application rates of 15.6 and 31.3 g of a.s./ha.
Text: as §1

The subject of another data set is velvet leaf (ABUTH). Described as above. To be noted: application rates of 15.6 and 31.3 g of a.s./ha. Type of data set: in vivo.
Text: as §1

Consider `CS(=O)(=O)Nc1cc(-c2nsc(C(F)(F)F)c2Cl)c(Cl)cc1Cl` [IAa.361, N-{2,4-Dichloro-5-[4-chloro-5-(trifluoromethyl)-3-isothiazolyl]-phenyl}methanesulfonamide], for which the melting point was 161 to 164 °C.

Consider `COC(=O)C(C)Oc1cc(-c2nsc(C(F)(F)F)c2Cl)c(F)cc1Cl` (stereo not shown) [IAa.727, Methyl 2-[2-chloro-4-fluoro-5-(4-chloro-5-trifluoromethylisothiazol-3-yl)phenoxy]propionate], for which the herbicidal action result (in data set [1]; in the data set with morning glory (IPOSS); in the data set on dayflower (COMBE); with redroot pigweed (AMARE); in the data set on velvet leaf (ABUTH)) was “very good herbicidal action” throughout.

`FC(F)(F)c1snc(-c2c(Cl)cc(Cl)c3nc(C4CC4)oc23)c1Cl` [IDa.67, 4,6-Dichloro-7-(4-chloro-5-trifluoromethyl-3-isothiazolyl)-2-cyclopropyl-1,3-benzoxazole] returned a melting point of 110 to 111 °C.
